Data reported in the CheMixHub viscosity set.
± gives the uncertainty stated by the source.

Experiment: xn = mol fraction of the nth substance listed

COCCOC + CCCO
viscosity [mPa·s]
Settings | 298.15 K | 308.15 K
101 kPa, x1 = 0.0072 | 1.874 ± 0.2 | 1.467 ± 0.15
101 kPa, x1 = 0.01 | 1.864 ± 0.2 | 1.448 ± 0.15
101 kPa, x1 = 0.0347 | 1.697 ± 0.18 | 1.336 ± 0.14
101 kPa, x1 = 0.0524 | 1.598 ± 0.17 | 1.274 ± 0.13
101 kPa, x1 = 0.06899 | 1.588 ± 0.01 | –
101 kPa, x1 = 0.0834 | 1.443 ± 0.15 | 1.16 ± 0.12
101 kPa, x1 = 0.1171 | 1.304 ± 0.14 | 1.055 ± 0.11
101 kPa, x1 = 0.1378 | 1.223 ± 0.13 | 1.008 ± 0.11
101 kPa, x1 = 0.1429 | 1.264 ± 0.0082 | –
101 kPa, x1 = 0.1976 | 1.05 ± 0.11 | 0.902 ± 0.095
101 kPa, x1 = 0.2223 | 1.056 ± 0.007 | –
101 kPa, x1 = 0.2436 | 0.946 ± 0.1 | 0.816 ± 0.086
101 kPa, x1 = 0.2925 | 0.879 ± 0.093 | 0.741 ± 0.079
101 kPa, x1 = 0.3078 | 0.8591 ± 0.0058 | –
101 kPa, x1 = 0.3507 | 0.807 ± 0.086 | 0.682 ± 0.073
101 kPa, x1 = 0.4001 | 0.7303 ± 0.0051 | –
101 kPa, x1 = 0.4082 | 0.747 ± 0.079 | 0.645 ± 0.069
101 kPa, x1 = 0.4355 | 0.695 ± 0.074 | 0.622 ± 0.066
101 kPa, x1 = 0.4665 | 0.684 ± 0.073 | 0.601 ± 0.064
101 kPa, x1 = 0.5001 | 0.6269 ± 0.0044 | –
101 kPa, x1 = 0.5064 | 0.635 ± 0.068 | 0.579 ± 0.062
101 kPa, x1 = 0.5539 | 0.604 ± 0.064 | 0.557 ± 0.059
101 kPa, x1 = 0.605 | 0.573 ± 0.061 | 0.533 ± 0.057
101 kPa, x1 = 0.6088 | 0.5528 ± 0.004 | –
101 kPa, x1 = 0.6728 | 0.54 ± 0.058 | 0.508 ± 0.054
101 kPa, x1 = 0.7247 | 0.519 ± 0.056 | 0.495 ± 0.053
101 kPa, x1 = 0.7273 | 0.4945 ± 0.0037 | –
101 kPa, x1 = 0.7669 | 0.503 ± 0.054 | 0.483 ± 0.052
101 kPa, x1 = 0.8206 | 0.488 ± 0.052 | 0.475 ± 0.051
101 kPa, x1 = 0.8572 | 0.4482 ± 0.0034 | –
101 kPa, x1 = 0.8747 | 0.473 ± 0.051 | 0.479 ± 0.051
101 kPa, x1 = 0.9605 | 0.461 ± 0.05 | 0.45 ± 0.048
101 kPa, x2 = 0.0061 | 0.452 ± 0.049 | 0.448 ± 0.048
101.33 kPa, x1 = 0.0095 | 1.881 ± 0.015 | –
101.33 kPa, x1 = 0.0215 | 1.798 ± 0.014 | –
101.33 kPa, x1 = 0.0405 | 1.678 ± 0.013 | –
101.33 kPa, x1 = 0.0628 | 1.552 ± 0.012 | –
101.33 kPa, x1 = 0.0941 | 1.397 ± 0.011 | –
101.33 kPa, x1 = 0.1096 | 1.329 ± 0.011 | –
101.33 kPa, x1 = 0.1355 | 1.228 ± 0.01 | –
101.33 kPa, x1 = 0.1741 | 1.109 ± 0.009 | –
101.33 kPa, x1 = 0.2034 | 1.024 ± 0.009 | –
101.33 kPa, x1 = 0.2436 | 0.942 ± 0.008 | –
101.33 kPa, x1 = 0.2926 | 0.842 ± 0.007 | –
101.33 kPa, x1 = 0.3474 | 0.764 ± 0.007 | –
101.33 kPa, x1 = 0.3848 | 0.722 ± 0.006 | –
101.33 kPa, x1 = 0.4255 | 0.678 ± 0.006 | –
101.33 kPa, x1 = 0.4764 | 0.636 ± 0.006 | –
101.33 kPa, x1 = 0.5241 | 0.6 ± 0.006 | –
101.33 kPa, x1 = 0.57 | 0.572 ± 0.005 | –
101.33 kPa, x1 = 0.6239 | 0.536 ± 0.005 | –
101.33 kPa, x1 = 0.6795 | 0.509 ± 0.005 | –
101.33 kPa, x1 = 0.7142 | 0.495 ± 0.005 | –
101.33 kPa, x1 = 0.7632 | 0.476 ± 0.005 | –
101.33 kPa, x1 = 0.8198 | 0.459 ± 0.005 | –
101.33 kPa, x1 = 0.8625 | 0.447 ± 0.004 | –
101.33 kPa, x1 = 0.9004 | 0.439 ± 0.004 | –
101.33 kPa, x1 = 0.9269 | 0.435 ± 0.004 | –
101.33 kPa, x1 = 0.959 | 0.427 ± 0.004 | –
101.33 kPa, x2 = 0.0158 | 0.424 ± 0.004 | –

COC(C)=O + O=C1CCCO1
298.15 K, 101.33 kPa
Settings | viscosity [mPa·s]
x1 = 0.0471 | 1.585 ± 0.012
x1 = 0.1055 | 1.467 ± 0.011
x1 = 0.1514 | 1.365 ± 0.011
x1 = 0.2015 | 1.254 ± 0.01
x1 = 0.2517 | 1.16 ± 0.009
x1 = 0.293 | 1.091 ± 0.009
x1 = 0.4005 | 0.902 ± 0.007
x1 = 0.4297 | 0.858 ± 0.007
x1 = 0.4981 | 0.746 ± 0.006
x1 = 0.5486 | 0.678 ± 0.006
x1 = 0.5907 | 0.632 ± 0.005
x1 = 0.701 | 0.52 ± 0.005
x1 = 0.745 | 0.485 ± 0.004
x1 = 0.7921 | 0.446 ± 0.004
x1 = 0.8471 | 0.416 ± 0.004
x1 = 0.9005 | 0.378 ± 0.004
x1 = 0.9509 | 0.369 ± 0.004

OCCNCCO + CN(C)C=O
viscosity [mPa·s], 101 kPa
Settings | 298.15 K | 303.15 K | 308.15 K | 313.15 K | 318.15 K | 323.15 K
x2 = 0.7704 | 2.703 ± 0.19 | 2.509 ± 0.18 | 2.34 ± 0.16 | 2.172 ± 0.15 | 2.034 ± 0.14 | 1.879 ± 0.13
x2 = 0.8119 | 2.172 ± 0.15 | 2.009 ± 0.14 | 1.842 ± 0.13 | 1.682 ± 0.12 | 1.542 ± 0.11 | 1.427 ± 0.1
x2 = 0.8519 | 1.853 ± 0.13 | 1.686 ± 0.12 | 1.559 ± 0.11 | 1.429 ± 0.1 | 1.295 ± 0.091 | 1.204 ± 0.085
x2 = 0.8907 | 1.53 ± 0.11 | 1.423 ± 0.1 | 1.321 ± 0.093 | 1.206 ± 0.085 | 1.115 ± 0.079 | 1.03 ± 0.072
x2 = 0.9283 | 1.357 ± 0.096 | 1.238 ± 0.087 | 1.14 ± 0.08 | 1.043 ± 0.073 | 0.9653 ± 0.068 | 0.8984 ± 0.063
x2 = 0.9647 | 1.169 ± 0.082 | 1.097 ± 0.077 | 1.02 ± 0.072 | 0.9487 ± 0.067 | 0.8828 ± 0.062 | 0.8316 ± 0.059

CCC(C)=O + CC(C)O
101 kPa
Settings | viscosity [mPa·s]
308.15 K, x1 = 0.1282 | 1.095 ± 0.21
313.15 K, x1 = 0.0595 | 1.165 ± 0.23
